Earlier results in US8815261B2 (priority 2009, dated 2014).
Where two headings read alike, the source gives them in different places.

| Structure (SMILES) | logP calculated value of organic acid (PubChem value, as in Example 2 (Table 4)) | logP calculated value of organic acid (PubChem value (revised on February, 2009)) |
| --- | --- | --- |
| O=S(=O)(O)c1ccccc1 [benzenesulfonic acid] | 0 | – |
| CC(=O)CCC(=O)O [levulinic acid] | – | −0.5 |
